Laboratory results from ChEMBL document CHEMBL3885881, “DrugMatrix”.

Organism: Rattus norvegicus
Assay: DrugMatrix - Regimen: Daily Repeat
Format: toxicity, organism-based, Sprague-Dawley
Set-up: regimen Daily Repeat, gender Male, age 6-8 weeks
Details: in vivo, po, route oral GAVAGE, vehicle 100 % WATER; for ABSOLUTE BASOPHIL / ABSOLUTE EOSINOPHIL / ABSOLUTE LYMPHOCYTE / ABSOLUTE MONOCYTE / ABSOLUTE SEGMENTED NEUTROPHIL / BASOPHIL / EOSINOPHIL / ERYTHROCYTE COUNT / HEMATOCRIT / HEMOGLOBIN / LEUKOCYTE COUNT / LYMPHOCYTE / MEAN CORPUSCULAR HEMOGLOBIN / MEAN CORPUSCULAR HEMOGLOBIN CONCENTRATION / MEAN CORPUSCULAR VOLUME / MONOCYTE / NEUTROPHIL / NUCLEATED RED BLOOD CELLS / PLATELET COUNT: tissue Blood; for ALANINE AMINOTRANSFERASE / ALBUMIN / ALKALINE PHOSPHATASE / ASPARTATE AMINOTRANSFERASE / BLOOD UREA NITROGEN / CARBON DIOXIDE / CHLORIDE / CHOLESTEROL / CREATINE PHOSPHOKINASE / CREATININE / GLUCOSE / LACTATE DEHYDROGENASE / LIPASE / PHOSPHORUS / POTASSIUM / SODIUM / TOTAL BILIRUBIN / TOTAL PROTEIN / URIC ACID: tissue Plasma
[1] = 0 mg/kg, 72 h, dose level Control, time 3 day
[2] = 0 mg/kg, 120 h, dose level Control, time 5 day
[3] = 120 mg/kg, 72 h, dose level Low, time 3 day

In the case of `CCN(CC)CCNC(=O)c1cc(S(C)(=O)=O)ccc1OC` [TIAPRIDE], the “ABSOLUTE BASOPHIL” value [1] is reported as 0 CELLS/uL, the “ABSOLUTE EOSINOPHIL” value [1] is reported as 151.33 CELLS/uL and the “ABSOLUTE LYMPHOCYTE” value [1] is reported as 10599.5 CELLS/uL. For the same compound, the “ABSOLUTE MONOCYTE” value [1] was 109.5 CELLS/uL, the “ABSOLUTE SEGMENTED NEUTROPHIL” value [1] was 1139.67 CELLS/uL and the BASOPHIL [1] was 0%. For the same compound, the EOSINOPHIL [1] was 0.83%, the “ERYTHROCYTE COUNT” value [1] was 5.54 x10E6/uL and the HEMATOCRIT [1] was 35.35%. For the same compound, the HEMOGLOBIN [1] was 13.22 G/DL, the “LEUKOCYTE COUNT” value [1] was 12 x10E3/uL and the LYMPHOCYTE [1] was 89%. The “MEAN CORPUSCULAR HEMOGLOBIN” value [1] was 23.88 pg, the “MEAN CORPUSCULAR HEMOGLOBIN CONCENTRATION” value [1] was 37.4 G/DL and the “MEAN CORPUSCULAR VOLUME” value [1] was 63.85 fL. For the same compound, the MONOCYTE [1] was 1%, the NEUTROPHIL [1] was 9.17% and the “NUCLEATED RED BLOOD CELLS” value [1] was 0 /100WBC. The “PLATELET COUNT” value [1] was 1333.33 x10E3/uL, the “ALANINE AMINOTRANSFERASE” value [1] was 53.17 u/L and the ALBUMIN [1] was 4.32 G/DL. For the same compound, the “ALKALINE PHOSPHATASE” value [1] was 404.33 u/L, the “ASPARTATE AMINOTRANSFERASE” value [1] was 83.17 u/L and the “BLOOD UREA NITROGEN” value [1] was 15.67 mg/dL. The “CARBON DIOXIDE” value [1] was 27.33 mmol/L, the CHLORIDE [1] was 101.83 MEQ/L and the CHOLESTEROL [1] was 68.67 mg/dL. The “CREATINE PHOSPHOKINASE” value [1] was 276.17 u/L, the CREATININE [1] was 0.18 mg/dL and the GLUCOSE [1] was 163.5 mg/dL. For the same compound, the “LACTATE DEHYDROGENASE” value [1] was 144.67 u/L, the LIPASE [1] was 8.83 u/L and the PHOSPHORUS [1] was 11.72 mg/dL. For the same compound, the POTASSIUM [1] was 5.99 MEQ/L, the SODIUM [1] was 143.57 MEQ/L and the “TOTAL BILIRUBIN” value [1] was 0.2 mg/dL. For the same compound, the “TOTAL PROTEIN” value [1] was 6.1 G/DL, the “URIC ACID” value [1] was 1.38 mg/dL and the “ABSOLUTE BASOPHIL” value [2] was 0 CELLS/uL. The “ABSOLUTE EOSINOPHIL” value [2] was 248.67 CELLS/uL, the “ABSOLUTE LYMPHOCYTE” value [2] was 12977.83 CELLS/uL and the “ABSOLUTE MONOCYTE” value [2] was 19.67 CELLS/uL. The “ABSOLUTE SEGMENTED NEUTROPHIL” value [2] was 1137.17 CELLS/uL, the BASOPHIL [2] was 0% and the EOSINOPHIL [2] was 1.67%. For the same compound, the “ERYTHROCYTE COUNT” value [2] was 5.82 x10E6/uL, the HEMATOCRIT [2] was 36.35% and the HEMOGLOBIN [2] was 13.58 G/DL. The “LEUKOCYTE COUNT” value [2] was 14.38 x10E3/uL, the LYMPHOCYTE [2] was 90.5% and the “MEAN CORPUSCULAR HEMOGLOBIN” value [2] was 23.32 pg. The “MEAN CORPUSCULAR HEMOGLOBIN CONCENTRATION” value [2] was 37.42 G/DL, the “MEAN CORPUSCULAR VOLUME” value [2] was 62.42 fL and the MONOCYTE [2] was 0.17%. For the same compound, the NEUTROPHIL [2] was 7.67%, the “NUCLEATED RED BLOOD CELLS” value [2] was 0 /100WBC and the “PLATELET COUNT” value [2] was 1337.67 x10E3/uL. The “ALANINE AMINOTRANSFERASE” value [2] was 48.5 u/L, the ALBUMIN [2] was 4.32 G/DL and the “ALKALINE PHOSPHATASE” value [2] was 354.33 u/L. For the same compound, the “ASPARTATE AMINOTRANSFERASE” value [2] was 80 u/L, the “BLOOD UREA NITROGEN” value [2] was 16 mg/dL and the “CARBON DIOXIDE” value [2] was 27.33 mmol/L. The CHLORIDE [2] was 100.33 MEQ/L, the CHOLESTEROL [2] was 68 mg/dL and the “CREATINE PHOSPHOKINASE” value [2] was 325.17 u/L. For the same compound, the CREATININE [2] was 0.23 mg/dL, the GLUCOSE [2] was 172 mg/dL and the “LACTATE DEHYDROGENASE” value [2] was 254.83 u/L. The LIPASE [2] was 8.33 u/L, the PHOSPHORUS [2] was 12.17 mg/dL and the POTASSIUM [2] was 6.28 MEQ/L. The SODIUM [2] was 143.57 MEQ/L, the “TOTAL BILIRUBIN” value [2] was 0.18 mg/dL and the “TOTAL PROTEIN” value [2] was 6.12 G/DL. For the same compound, the “URIC ACID” value [2] was 1.78 mg/dL, the “ABSOLUTE BASOPHIL” value [3] was 0 CELLS/uL and the “ABSOLUTE EOSINOPHIL” value [3] was 161.33 CELLS/uL. The “ABSOLUTE LYMPHOCYTE” value [3] was 8742.33 CELLS/uL, the “ABSOLUTE MONOCYTE” value [3] was 34.33 CELLS/uL and the “ABSOLUTE SEGMENTED NEUTROPHIL” value [3] was 962 CELLS/uL. For the same compound, the BASOPHIL [3] was 0%, the EOSINOPHIL [3] was 1.33% and the “ERYTHROCYTE COUNT” value [3] was 5.57 x10E6/uL. The HEMATOCRIT [3] was 35.07%, the HEMOGLOBIN [3] was 13.23 G/DL and the “LEUKOCYTE COUNT” value [3] was 9.9 x10E3/uL. For the same compound, the LYMPHOCYTE [3] was 88.33%, the “MEAN CORPUSCULAR HEMOGLOBIN” value [3] was 23.77 pg and the “MEAN CORPUSCULAR HEMOGLOBIN CONCENTRATION” value [3] was 37.7 G/DL. For the same compound, the “MEAN CORPUSCULAR VOLUME” value [3] was 63.03 fL, the MONOCYTE [3] was 0.33% and the NEUTROPHIL [3] was 10%. For the same compound, the “NUCLEATED RED BLOOD CELLS” value [3] was 0 /100WBC, the “PLATELET COUNT” value [3] was 1263 x10E3/uL and the “ALANINE AMINOTRANSFERASE” value [3] was 47.67 u/L. The ALBUMIN [3] was 4.13 G/DL, the “ALKALINE PHOSPHATASE” value [3] was 345 u/L and the “ASPARTATE AMINOTRANSFERASE” value [3] was 82.33 u/L. For the same compound, the “BLOOD UREA NITROGEN” value [3] was 15.33 mg/dL, the “CARBON DIOXIDE” value [3] was 27.33 mmol/L and the CHLORIDE [3] was 103 MEQ/L. The CHOLESTEROL [3] was 60.67 mg/dL, the “CREATINE PHOSPHOKINASE” value [3] was 172.67 u/L and the CREATININE [3] was 0.19 mg/dL. For the same compound, the GLUCOSE [3] was 170.33 mg/dL, the “LACTATE DEHYDROGENASE” value [3] was 114 u/L and the LIPASE [3] was 8 u/L. It also gave a PHOSPHORUS [3] of 12.83 mg/dL, a POTASSIUM [3] of 5.99 MEQ/L and an SODIUM [3] of 145.83 MEQ/L. The “TOTAL BILIRUBIN” value [3] was 0.2 mg/dL, the “TOTAL PROTEIN” value [3] was 6.17 G/DL and the “URIC ACID” value [3] was 1.33 mg/dL.
